Results reported in patent US8299048B2, “Hexahydrocyclopentyl[f]indazole sulfonamides and derivatives thereof as selective glucocorticoid receptor modulators” (Merck Sharp & Dohme Corp., priority 2008, dated 2012).

target: T1, glucocorticoid receptor (Homo sapiens, UniProt P04150); assay: Ligand binding assay (GR BIND)
T1 construct: endogenous in cells
T1 sequence (P04150 1-777): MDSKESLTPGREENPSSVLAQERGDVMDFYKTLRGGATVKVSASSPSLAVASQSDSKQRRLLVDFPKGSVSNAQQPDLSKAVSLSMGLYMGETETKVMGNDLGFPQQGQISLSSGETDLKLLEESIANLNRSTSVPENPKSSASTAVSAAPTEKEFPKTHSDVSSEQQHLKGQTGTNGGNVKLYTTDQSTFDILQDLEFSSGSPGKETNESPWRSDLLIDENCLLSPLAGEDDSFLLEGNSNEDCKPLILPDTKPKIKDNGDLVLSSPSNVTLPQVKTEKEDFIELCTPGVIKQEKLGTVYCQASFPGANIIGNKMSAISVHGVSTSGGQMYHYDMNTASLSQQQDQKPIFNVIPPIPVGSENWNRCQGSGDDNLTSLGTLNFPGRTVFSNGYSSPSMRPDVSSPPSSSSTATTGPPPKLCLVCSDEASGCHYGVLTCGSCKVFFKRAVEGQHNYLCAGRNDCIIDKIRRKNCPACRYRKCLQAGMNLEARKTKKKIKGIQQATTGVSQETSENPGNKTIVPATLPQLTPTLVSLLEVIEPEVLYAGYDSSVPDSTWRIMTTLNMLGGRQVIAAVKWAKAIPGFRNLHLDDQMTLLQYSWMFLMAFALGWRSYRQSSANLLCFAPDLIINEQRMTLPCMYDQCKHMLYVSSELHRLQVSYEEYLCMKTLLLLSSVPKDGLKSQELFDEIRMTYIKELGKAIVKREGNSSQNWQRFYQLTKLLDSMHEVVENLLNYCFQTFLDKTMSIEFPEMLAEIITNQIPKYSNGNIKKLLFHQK
In short: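 Displacement of tritiated dexamethasone (6 nM trace solution) from receptor in cell supernatant was measured after overnight incubation at 4 °C in molybdate-containing TEGM, pH 7.2, 2% ethanol. Hydroxylapatite pulled down the receptor–ligand complex for filter washing and scintillation counting, with dexamethasone as reference.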

Row | Compound | Ki [nM]
1 | C[C@]12Cc3cnn(-c4ccc(F)cc4)c3C=C1CC[C@@H]2CN(CCc1ccccn1)S(=O)(=O)Cc1cccnc1 [Example 1, N-{[(4αR,5S)-1-(4-Fluorophenyl)-4α-methyl-1,4,4α,5,6,7-hexahydrocyclopenta[f]indazol-5-yl]methyl}-1-pyridin-3-yl-N-(2-pyridin-2-ylethyl)methanesulfonamide] | 1.8
2 | C[C@]12Cc3cnn(-c4ccc(F)cc4)c3C=C1CC[C@@H]2CN(CC1CC1)S(=O)(=O)c1ccccc1F [Example 2, N-(cyclopropylmethyl)-2-fluoro-N-{[(4αR,5S)-1-(4-fluorophenyl)-4α-methyl-1,4,4α,5,6,7-hexahydrocyclopenta[f]indazol-5-yl]methyl}benzenesulfonamide] | 0.6
3 | C=CCN(C[C@H]1CCC2=Cc3c(cnn3-c3ccc(F)cc3)C[C@@]21C)S(=O)(=O)c1ccccc1F [Example 3, N-allyl-2-fluoro-N-{[(4αR,5S)-1-(4-fluorophenyl)-4α-methyl-1,4,4α,5,6,7-hexahydrocyclopenta[f]indazol-5-yl]methyl}benzenesulfonamide] | 0.8
4 | C[C@]12Cc3cnn(-c4ccc(F)cc4)c3C=C1CC[C@@H]2CN(CC1CC1)S(=O)(=O)c1ccccc1C(F)(F)F [Example 4, N-(cyclopropylmethyl)-N-{[(4αR,5S)-1-(4-fluorophenyl)-4α-methyl-1,4,4α,5,6,7-hexahydrocyclopenta[f]indazol-5-yl]methyl}-2-(trifluoromethyl)benzenesulfonamide] | 2.2
5 | C[C@]12Cc3cnn(-c4ccc(F)cc4)c3C=C1CC[C@@H]2CN(CCO)S(=O)(=O)Cc1cccc(C(F)(F)F)c1 [Example 63, N-{[(4αR,5S)-1-(4-fluorophenyl)-4α-methyl-1,4,4α,5,6,7-hexahydrocyclopenta[f]indazol-5-yl]methyl}-N-(2-hydroxyethyl)-1-[3-(trifluoromethyl)phenyl]methanesulfonamide] | 9.1
6 | Cc1ccc(S(=O)(=O)N(CCO)C[C@H]2CCC3=Cc4c(cnn4-c4ccc(F)cc4)C[C@@]32C)s1 [Example 64, N-{[(4αR,5S)-1-(4-fluorophenyl)-4α-methyl-1,4,4α,5,6,7-hexahydrocyclopenta[f]indazol-5-yl]methyl}-N-(2-hydroxyethyl)-5-methylthiophene-2-sulfonamide] | 3
7 | Cn1cc(S(=O)(=O)N(CCO)C[C@H]2CCC3=Cc4c(cnn4-c4ccc(F)cc4)C[C@@]32C)c(C(F)(F)F)n1 [Example 65, N-{[(4αR,5S)-1-(4-fluorophenyl)-4α-methyl-1,4,4α,5,6,7-hexahydrocyclopenta[f]indazol-5-yl]methyl}-N-(2-hydroxyethyl)-1-methyl-3-(trifluoromethyl)-1H-pyrazole-4-sulfonamide] | 2.7
8 | Cc1cc(S(=O)(=O)N(CCO)C[C@H]2CCC3=Cc4c(cnn4-c4ccc(F)cc4)C[C@@]32C)c(C)o1 [Example 66, N-{[(4αR,5S)-1-(4-fluorophenyl)-4α-methyl-1,4,4α,5,6,7-hexahydrocyclopenta[f]indazol-5-yl]methyl}-N-(2-hydroxyethyl)-2,5-dimethylfuran-3-sulfonamide] | 7.9
9 | Cn1nc(C(F)(F)F)cc1-c1ccc(S(=O)(=O)N(CCO)C[C@H]2CCC3=Cc4c(cnn4-c4ccc(F)cc4)C[C@@]32C)s1 [Example 67, N-{[(4αR,5S)-1-(4-fluorophenyl)-4α-methyl-1,4,4α,5,6,7-hexahydrocyclopenta[f]indazol-5-yl]methyl}-N-(2-hydroxyethyl)-5-[1-methyl-3-(trifluoromethyl)-1H-pyrazole-5-yl]thiophene-2-sulfonamide] | 13.4
10 | C[C@]12Cc3cnn(-c4ccc(F)cc4)c3C=C1CC[C@@H]2CN(CCO)S(=O)(=O)c1cccc(C#N)c1 [Example 68, 3-cyano-N-{[(4αR,5S)-1-(4-fluorophenyl)-4α-methyl-1,4,4α,5,6,7-hexahydrocyclopenta[f]indazol-5-yl]methyl}-N-(2-hydroxyethyl)benezenesulfonamide] | 3.6
11 | C[C@]12Cc3cnn(-c4ccc(F)cc4)c3C=C1CC[C@@H]2CN(CCO)S(=O)(=O)c1ccc(Oc2cccc(Cl)c2C#N)cc1 [Example 69, 4-(3-chloro-2-cyanophenoxy)-N-{[(4αR,5S)-1-(4-fluorophenyl)-4α-methyl-1,4,4α,5,6,7-hexahydrocyclopenta[f]indazol-5-yl]methyl}-N-(2-hydroxyethyl)benzenesulfonamide] | 8.7
12 | C[C@]12Cc3cnn(-c4ccc(F)cc4)c3C=C1CC[C@@H]2CN(CCO)S(=O)(=O)c1ccccc1C(F)(F)F [Example 70, N-{[(4αR,5S)-1-(4-fluorophenyl)-4α-methyl-1,4,4α,5,6,7-hexahydrocyclopenta[f]indazol-5-yl]methyl}-N-(2-hydroxyethyl)-2-(trifluoromethyl)benzenesulfonamide] | 4.5
13 | Cc1noc(C)c1S(=O)(=O)N(CCO)C[C@H]1CCC2=Cc3c(cnn3-c3ccc(F)cc3)C[C@@]21C [Example 71, N-{[(4αR,5S)-1-(4-fluorophenyl)-4α-methyl-1,4,4α,5,6,7-hexahydrocyclopenta[f]indazol-5-yl]methyl}-N-(2-hydroxyethyl)-3,5-dimethylisoxazole-4-sulfonamide] | 5
14 | C[C@]12Cc3cnn(-c4ccc(F)cc4)c3C=C1CC[C@@H]2CN(CCO)S(=O)(=O)c1cc(F)cc(F)c1 [Example 72] | 1.4
15 | COC(=O)c1ccccc1S(=O)(=O)N(CCO)C[C@H]1CCC2=Cc3c(cnn3-c3ccc(F)cc3)C[C@@]21C [Example 73, methyl 2-{[{[(4αR,5S)-1-(4-fluorophenyl)-4α-methyl-1,4,4α,5,6,7-hexahydrocyclopenta[f]indazol-5-yl]methyl}(2-hydroxyethyl)amino]sulfonyl}benzoate] | 3.1
16 | C[C@]12Cc3cnn(-c4ccc(F)cc4)c3C=C1CC[C@@H]2CN(CCO)S(=O)(=O)c1ccc(Oc2ccccn2)cc1 [Example 74, N-{[(4αR,5S)-1-(4-fluorophenyl)-4α-methyl-1,4,4α,5,6,7-hexahydrocyclopenta[f]indazol-5-yl]methyl}-N-(2-hydroxyethyl)-4-(pyridin-2-yloxy)benzenesulfonamide] | 3
17 | C[C@]12Cc3cnn(-c4ccc(F)cc4)c3C=C1CC[C@@H]2CN(CCO)S(=O)(=O)Cc1ccccc1 [Example 75, N-{[(4αR,5S)-1-(4-fluorophenyl)-4α-methyl-1,4,4α,5,6,7-hexahydrocyclopenta[f]indazol-5-yl]methyl}-N-(2-hydroxyethyl)-1-phenylmethanesulfonamide] | 2.5
18 | CNC(=O)Nc1ccc(S(=O)(=O)N(CCO)C[C@H]2CCC3=Cc4c(cnn4-c4ccc(F)cc4)C[C@@]32C)c(Cl)c1 [Example 76, 2-chloro-N-{[(4αR,5S)-1-(4-fluorophenyl)-4α-methyl-1,4,4α,5,6,7-hexahydrocyclopenta[f]indazol-5-yl]methyl}-N-(2-hydroxyethyl)-4-{[(methylamino)carbonyl]amino}-benzenesulfonamide] | 7.7
19 | Cc1ccccc1S(=O)(=O)N(CCO)C[C@H]1CCC2=Cc3c(cnn3-c3ccc(F)cc3)C[C@@]21C [Example 77, N-{[(4αR,5S)-1-(4-fluorophenyl)-4α-methyl-1,4,4α,5,6,7-hexahydrocyclopenta[f]indazol-5-yl]methyl}-N-(2-hydroxyethyl)-2-methylbenzenesulfonamide] | 1.8
